Target: CatB (Homo sapiens, UniProt P07858)
Type: biochemical
Conditions: pH 5

CA-074 methyl ester [CatB inhibitor]
blocking of CatB-dependent cleavage of EBOV GP: effectively blocked

Reference: paper PMC7104201 (iScience, 2020)
